Test results reported in US4073926A, “Mono-quaternary ammonium salts of hydantoin and compositions thereof” (Glyco Chemicals, Inc., priority 1976, dated 1978).
Read-outs that look alike come from different tables or passages of the source.

Experiments:
Type in all cases: cell-based
[1] = system: Staphylococcus aureus No. 6538; assay: Serial dilution anti-bacterial test in BBL Trypticase Soy Broth; design: Test Culture and Results Staphyloccus aureus # 6538: key: -: Denotes no test; +: Denotes growth; 0: Denotes no growth; details: for MIC: Staphylococcus aureus, read-out: Minimum Inhibitory Centration
Procedure: (§1) The product compound of the Example 1 was tested for anti-bacterial and anti-fungal activity and compared to the known commercial broad spectrum bactericide/fungicide, according to the following procedure.
(§2) Samples of the compound were prepared for testing by making a stock solution in sterile distilled water containing 10,000 parts per million. Serial dilutions of each sample were prepared in appropriate culture media which were then innoculated with the test cultures and incubated. The tests employing bacteria were performed in BBL Trypticase Soy Broth incubated for 48 hours at 35° C. The tests employing A. niger were performed in Difco Sabouraud Dextrose Broth incubated for 5 days at 26° C.
(§3) The test cultures were Staphylococcus aureus No. 6538, Pseudomonas aeruginosa No. 9027 and Aspergillus niger No. 16404.

[2] = system: Aspergillus niger No. 16404; assay: Serial dilution anti-fungal test in Difco Sabouraud Dextrose Broth; design: Test Culture and Results Aspergillis niger # 16404: key: -: Denotes no test; +: Denotes growth; 0: Denotes no growth; details: for MIC: Aspergillus niger, NO.16404, 120 h, read-out: Minimum Inhibitory Centration
Procedure: as §1, §2, §3

[3] = system: Pseudomonas aeruginosa No. 9027; assay: Serial dilution anti-bacterial test in BBL Trypticase Soy Broth; details: for MIC: Pseudomonas aeruginosa, read-out: Minimum Inhibitory Centration; for Test Culture and Results Pseudomonas aeruginosa # 9027: key: -: Denotes no test; +: Denotes growth; 0: Denotes no growth
Procedure: as §1, §2, §3

[4] = 100 parts per million, 48 hours at 35° C
[5] = 200 parts per million, 48 hours at 35° C
[6] = 300 parts per million, 48 hours at 35° C
[7] = 400 parts per million, 48 hours at 35° C
[8] = 500 parts per million, 48 hours at 35° C
[9] = 600 parts per million, 48 hours at 35° C
[10] = 700 parts per million, 48 hours at 35° C
[11] = 800 parts per million, 48 hours at 35° C
[12] = 900 parts per million, 48 hours at 35° C
[13] = 1000 parts per million, 48 hours at 35° C
[14] = 100 parts per million, 5 days at 26° C
[15] = 200 parts per million, 5 days at 26° C
[16] = 300 parts per million, 5 days at 26° C
[17] = 400 parts per million, 5 days at 26° C
[18] = 500 parts per million, 5 days at 26° C
[19] = 600 parts per million, 5 days at 26° C
[20] = 700 parts per million, 5 days at 26° C
[21] = 800 parts per million, 5 days at 26° C
[22] = 900 parts per million, 5 days at 26° C
[23] = 1000 parts per million, 5 days at 26° C

Structure (SMILES)	Test Culture and Results Staphyloccus aureus # 6538 [1, 4]	Test Culture and Results Staphyloccus aureus # 6538 [1, 5]	Test Culture and Results Staphyloccus aureus # 6538 [1, 6]	Test Culture and Results Staphyloccus aureus # 6538 [1, 7]	Test Culture and Results Staphyloccus aureus # 6538 [1, 8]	Test Culture and Results Staphyloccus aureus # 6538 [1, 9]	Test Culture and Results Staphyloccus aureus # 6538 [1, 10]	Test Culture and Results Staphyloccus aureus # 6538 [1, 11]	Test Culture and Results Staphyloccus aureus # 6538 [1, 12]	Test Culture and Results Staphyloccus aureus # 6538 [1, 13]	Test Culture and Results Aspergillis niger # 16404 [2, 14]	Test Culture and Results Aspergillis niger # 16404 [2, 15]	Test Culture and Results Aspergillis niger # 16404 [2, 16]	Test Culture and Results Aspergillis niger # 16404 [2, 17]	Test Culture and Results Aspergillis niger # 16404 [2, 18]	Test Culture and Results Aspergillis niger # 16404 [2, 19]	Test Culture and Results Aspergillis niger # 16404 [2, 20]	Test Culture and Results Aspergillis niger # 16404 [2, 21]	Test Culture and Results Aspergillis niger # 16404 [2, 22]	Test Culture and Results Aspergillis niger # 16404 [2, 23]	further results
ClC=CC[N+]12CN3CN(CN(C3)C1)C2.[Cl-] [Dowicil 200, 1-(3-chloroallyl)-3,5,7-triaza-1-azonia adamantane chloride, reference compound]	+	0	0	0	0	0	0	0	0	0	+	+	+	+	+	+	+	0	0	0	MIC ([1]; NO.6538, 48 h): 200 µg/mL; MIC [2]: 800 µg/mL; Test Culture and Results Pseudomonas aeruginosa # 9027 [3, 4]: +; Test Culture and Results Pseudomonas aeruginosa # 9027 [3, 5]: +; Test Culture and Results Pseudomonas aeruginosa # 9027 [3, 6]: +; Test Culture and Results Pseudomonas aeruginosa # 9027 [3, 7]: +; Test Culture and Results Pseudomonas aeruginosa # 9027 [3, 8]: +; Test Culture and Results Pseudomonas aeruginosa # 9027 [3, 9]: +; Test Culture and Results Pseudomonas aeruginosa # 9027 [3, 10]: +; Test Culture and Results Pseudomonas aeruginosa # 9027 [3, 11]: +; Test Culture and Results Pseudomonas aeruginosa # 9027 [3, 12]: 0; Test Culture and Results Pseudomonas aeruginosa # 9027 [3, 13]: 0; MIC ([3]; NO.9027, 48 h): 900 µg/mL
CCCCCCCCCCCC[N+](C)(C)CCCN1C(=O)NC(C)(C)C1=O [Example 1]	0	0	0	0	0	0	0	0	0	0	+	+	0	0	0	0	0	0	0	0	Test Culture and Results Staphyloccus aureus # 6538 ([1]; 1.56 parts per million, 48 hours at 35° C): +; Test Culture and Results Staphyloccus aureus # 6538 ([1]; 3.12 parts per million, 48 hours at 35° C): +; Test Culture and Results Staphyloccus aureus # 6538 ([1]; 6.25 parts per million, 48 hours at 35° C): +; Test Culture and Results Staphyloccus aureus # 6538 ([1]; 12.5 parts per million, 48 hours at 35° C): +; Test Culture and Results Staphyloccus aureus # 6538 ([1]; 25 parts per million, 48 hours at 35° C): 0; Test Culture and Results Staphyloccus aureus # 6538 ([1]; 50 parts per million, 48 hours at 35° C): 0; MIC ([1]; NO.6538, Staph. aureus # 6538, 48 hours at 35° C): 25 µg/mL; MIC ([2]; Asperg. niger # 16404, 5 days at 26° C): 300 µg/mL; Test Culture and Results Pseudomonas aeruginosa # 9027 [3, 4]: +; Test Culture and Results Pseudomonas aeruginosa # 9027 [3, 5]: +; Test Culture and Results Pseudomonas aeruginosa # 9027 [3, 6]: +; Test Culture and Results Pseudomonas aeruginosa # 9027 [3, 7]: +; Test Culture and Results Pseudomonas aeruginosa # 9027 [3, 8]: +; Test Culture and Results Pseudomonas aeruginosa # 9027 [3, 9]: 0; Test Culture and Results Pseudomonas aeruginosa # 9027 [3, 10]: 0; Test Culture and Results Pseudomonas aeruginosa # 9027 [3, 11]: 0; Test Culture and Results Pseudomonas aeruginosa # 9027 [3, 12]: 0; Test Culture and Results Pseudomonas aeruginosa # 9027 [3, 13]: 0; MIC ([3]; NO.9027, Pseudo. aerugin # 9027, 48 hours at 35° C): 600 µg/mL
